Source: patent US10774084B2, “Adenine derivatives and their use as UV-photoprotective agents” (UNIVERZITA PALACKEHO V OLOMOUCI, priority 2015, dated 2020)

Columns and labels:
[1] = system: HaCaT; experiment: Calcein AM cytotoxicity assay; type: cell-based; settings: Homo sapiens, 72 hrs
Text: (§1) One of the parameters used as the base for cytotoxic analysis is metabolic activity of viable cells. Microtiter assay, which uses the Calcein AM, is now widely used to quantify cell proliferation and cytotoxicity. The quantity of […] Calcein AM corresponds to the number of viable cells in culture. The cell lines of breast cancer (MCF-7), human erythromleukemia (K562), BJ human fibroblast cells (BJ) and human keratinocyte cell line (HaCaT) were used for routine screening of cytotoxicity of the compounds. The cells were maintened in Nunc/Corning 80 cm^2 plastic bottles and grown in media for cell culture (DMEM containing 5 g/l of glucose, 2 mM of glutamin, 100 U/ml of penicilin, 100 μg/ml of streptomycin, 10% of fetal bovine serum and sodium hydrogencarbonate). Cell suspensions were diluted according to cell types and according to expected final cell density (10^4 of cells per well according to characteristics of cell growth), pippeted 80 μl of cell suspension on 96-well microtiter plates. Innoculates were stabilized by 24 hrs preincubation at 37° C. in CO2. Particular concentrations of tested compounds were added in time zero as 20 μl aliquotto wells of microtiter plates. Usually, the compounds were diluted into six concentrations in four-fold dilution series. In routine testing, the highest well concentration was 166.7 μM, of change dependent on the substance. All drug concentrations were examined in duplicates. The incubation of cells with tested derivatives lasted 72 hrs at 37° C., 100% humidity and in the atmosphere of CO2. At the end of the incubation period, the cells were tested and analysed according to the addition of Calcein AM (Molecular probes) solution and the incubation lasted for next 1 hour. Fluorescence (FD) was measured using Labsystem FIA reader Fluorskan Ascent (Microsystems). The survival of tumor cells (The tumor cell survival-TCS) was counted according to equation: […](FDwell with derivative/FDcontrol well)×100%. The value of GI50, that is equal to the concentration of compound at which 50% of tumour cells are terminated. To evaluate the antitumor activity was tested toxicity of new derivatives on panel of cell lines of different histogenetic and species origin (Tab. 6, G150 concentration given in μM). […] Effective derivatives killed tumor cells in concentrations close to 0.1 to 50. None of the newly prepared compounds only reached the value.

[2] = system: BJ human fibroblast cells; experiment: Calcein AM cytotoxicity assay; type: cell-based; settings: 72 hrs
Text: as §1

[3] = system: MCF-7; experiment: Calcein AM cytotoxicity assay; type: cell-based; settings: Homo sapiens, MCF7, 72 hrs
Text: as §1

[4] = system: K562; experiment: Calcein AM cytotoxicity assay; type: cell-based; settings: Homo sapiens, 72 hrs
Text: as §1

[5] = system: Triticum aestivum cv. Hereward leaf segments; experiment: Senescence bioassay on detached wheat leaf segments (chlorophyll retention); settings: for maximum effective concentration: 96 h in the dark; for activity (%) [10^−4 mol · l^−1 BAP = 100%]: at maximum effective concentration
Procedure: Seeds of winter wheat, Triticum aestivum cv. Hereward, were washed under running water for 24 hours and then sown on vermiculite soaked with Knop's solution. They were placed in the growth chamber at 25° C. with a 16/8 h light period at […]. After 7 days, the first leaf was fully developed and the second leaf had started to grow. A tip section of the first leaf, approximately 35 mm long, was removed from 5 seedlings and trimmed slightly to a combined weight of 100 mg. The basal ends of the five leaf tips were placed in the wells of a microtiter polystyrene plate containing 150 μL of the tested derivative solution each. The entire plate was inserted into a plastic box lined with paper tissues soaked in distilled water to prevent leaf sections from drying out. After 96 h incubation in the dark at 25° C., the leaves were removed and chlorophyll extracted by heating at 80° C. for 10 min in 5 mL of 80% ethanol (v/v). The sample volume was then restored to 5 mL by the addition of 80% ethanol (v/v). The absorbance of the extract was recorded at 665 nm. In addition, chlorophyll extracts from fresh leaves and leaf tips incubated in deionised water were measured. The results are means of five replicates and the entire test was repeated twice. […] The compounds to be tested were dissolved in dimethylsulfoxide (DMSO) and the solution brought up to 10^−3 M with distilled water. […] The activity obtained for 10^−4 M of BAP was postulated as 100%. Kinetin was used as the second standard. Newly prepared compounds generally exceeded the efficiency of standard (BAP) by 10% of its activity (Tab. 5).

[6] = system: skin fibroblasts BJ and keratinocytes HaCaT; experiment: MTT in vitro cytotoxicity test for skin cells; type: cell-based; settings: Homo sapiens; 72 hour treatment; table does not say which cell line (BJ, HaCaT)
Procedure: MTT assay is a standard test of toxicity based on photometric measurement of the ability of metabolically active cells to reduce MTT (3-(4,5-dimethylthiazol-2-yl)-2,5-diphenyltetrazolium bromide). Using the assay, the effects of 72 hour treatments with several concentrations of the compounds (sixfold dilution, maximal concentration=50 microM) on viability of skin fibroblasts BJ and keratinocytes HaCaT were evaluated. About 5,000 cells were seeded per well of a 96-well plate 24 hours before the treatment. DMSO vehiculum was used as a negative control. After 72 hour treatment, new medium with MTT (Sigma, M2128) was added to a final concentration of 0.5 mg/ml. After 3 hours, medium was removed and resulting formazan in the cells was dissolved in DMSO. The absorbance was measured at 570 nm (640 nm reference wavelength). The IC50 values were calculated from the dose-response curves. 6-furfurylaminopurine riboside was used as positive controls.

[7] = system: HaCaT; experiment: In vitro UVA/UVB photoprotection test on HaCaT; type: cell-based, human
Procedure: Spontaneously Immortalized Aneuploid Human Keratinocyte Cell Line (HaCaT) was bought from CLS (Eppeheim, Germany) and used as an in vitro model. For all experiments the keratinocytes were seeded onto 96-well plates at a density of 1.6×10^5 cells/ml (0.2 ml per well) of growth medium (DMEM supplemented with fetal bovine serum (10%), penicillin ([…]) and streptomycin (100 U/ml)).
Test substances included compounds number 3, 9, 15 and 20. Compounds were dissolved in DMSO and then diluted in serum free medium (DMEM supplemented penicillin ([…]) and streptomycin (100 U/ml)). After 24 h incubation was growth medium changed to serum free medium containing test compounds. The final applied concentration range was 3.9-31.25 μmol/l. As a control, serum free medium supplemented with appropriate concentration of DMSO (0.5%, v/v) was used. Rosmarinic acid was used as positive control. After 60 minutes incubation with test compounds medium was discarded, cells were washed two-times with PBS and PBS supplemented with glucose (1 mg/ml) was applied. To study UVA photoprotection, a plate was exposed to a cytotoxic dose of UVA radiation (10 J/cm2) using a solar simulator SOL 500 (Dr. Hoenle Technology, Germany) equipped with a H1 filter transmitting wavelengths of 320-400 nm. To study UVB photoprotection, a plate was exposed to a cytotoxic dose of UVB radiation (150 mJ/cm2) using the solar simulator equipped with a H2 filter transmitting wavelengths of 295-320 nm. Intensity of UVA or UVB radiation was evaluated before each irradiation by UVA- or UVB-meter. Control (non-irradiated) plates were for the period of irradiation incubated in dark. After UVA or UVB exposure PBS with glucose was discarded and serum free medium was applied. After 24 hours (37° C., 5% CO2) cell damage was evaluated by neutral red (NR) incorporation into viable cells. Medium was discarded and NR solution (0.03% w/v, PBS) was applied. After 60 minutes NR solution was discarded, cells were fixed with a mixture of formaldehyde (0.5%, v/v) and CaCl2 (1%, m/v) in ratio 1:1 and then NR was dissolved in methanol (50%, v/v) with acetic acid (1%, v/v).
After 5 minutes of intensive shaking absorbance was measured at 540 nm. Experiments were performed in four independent repetitions with use of […] to minimize individual sensitivity of donor cells. Photoprotective effect was evaluated by comparison of experimental data (absorbance) of test compounds with a positive control and a negative control (according to the following equation: […]
As . . . absorbance of sample (cells pre-incubated with test compounds in serum free medium and irradiated)
Anc . . . absorbance of negative control (cells pre-incubated with s DMSO in serum free medium and non-irradiated=incubated in dark)
Apc . . . absorbance of positive control (cells pre-incubated with s DMSO in serum free medium and irradiated)

[8] = system: Normal human dermal fibroblasts (NHDF); experiment: In vitro UVA/UVB photoprotection test on NHDF (Example 9); type: cell-based
Text: Normal human dermal fibroblasts (NHDF) were used as an in vitro model. Cells were isolated from tissue specimens obtained from healthy patients undergoing plastic surgery at the Department of Plastic and Aesthetic Surgery (University Hospital Olomouc). The use of skin tissue was in accordance with the Ethics Committee of the University Hospital and Faculty of Medicine and Dentistry, Palacky University, Olomouc and all patients signed written informed consent. Fibroblasts were used between the 2nd and 4th passage. For all experiments the fibroblasts were seeded onto 96-well plates at a density of 0.8×10^5 cells/ml (0.2 ml per well) of cultivation medium (DMEM supplemented with fetal calf serum (10%, v/v), penicillin ([…]) and streptomycin (100 U/ml)). Test substances included compounds number 1, 3, 9, 15 and 20. Compounds were dissolved in DMSO and then diluted in serum free medium (DMEM supplemented with penicillin ([…]) and streptomycin (100 U/ml)). After 24 h incubation was cultivation medium changed to serum free medium containing test compound or DMSO (negative control). The final applied concentrations range was 3.9-31.3 μmol/ll. As a control serum free medium supplemented with appropriate concentration of DMSO (0.5%, v/v) was used. Rosmarinic acid was used as positive control. Each test compound was in parallel applied on two 96-well plates with NHDF. After 60 minutes incubation medium with test compound was discarded, cells were washed two-times with PBS and PBS supplemented with glucose (1 mg/ml) was applied. To study UVA photoprotection, a plate was exposed to a cytotoxic dose of UVA radiation (7.5 J/cm^2) using a solar simulator SOL 500 (Dr. Hoenle Technology, Germany) equipped with a H1 filter transmitting wavelengths of 320-400 nm. To study UVB photoprotection, a plate was exposed to a cytotoxic dose of UVB radiation (150 mJ/cm^2) using the solar simulator equipped with a H2 filter transmitting wavelengths of 295-320 nm. Intensity of UVA or UVB radiation was evaluated before each irradiation by UVA- or UVB-meter. Control (non-irradiated) plates were for the period of irradiation incubated in dark. After UVA or UVB exposure PBS with glucose was discarded and serum free medium was applied. After 24 hours (37° C., 5% CO2) cell damage was evaluated by neutral red (NR) incorporation into viable cells. Medium was discarded and NR solution (0.03% w/v, PBS) was applied. After 60 minutes NR solution was discarded, cells were fixed with a mixture of formaldehyde (0.5%, v/v) and CaCl2 (1%, m/v) in ratio 1:1 and then NR was dissolved in methanol (50%, v/v) with acetic acid (1%, v/v). After 5 minutes of intensive shaking absorbance was measured at 540 nm. Experiments were performed in four independent repetitions with use of cells from four donors to minimize individual sensitivity of donor cells. Photoprotective effect was evaluated by comparison of experimental data (absorbance) of test compounds with a positive control and a negative control (according to the following equation:
[formula] • As . . . absorbance of sample (cells pre-incubated with test compounds in serum free medium and irradiated) • Anc . . . absorbance of negative control (cells pre-incubated with s DMSO in serum free medium and non-irradiated=incubated in dark) • Apc . . . absorbance of positive control (cells pre-incubated with s DMSO in serum free medium and irradiated)

c1coc(CNc2ncnc3c2ncn3C2CCCO2)c1 (centres unmarked) [6-furfurylamino-9-(tetrahydrofuran-2-yl)purine]
GI50 [1]: > 100 µM
GI50 [2]: > 100 µM
GI50 [3]: > 100 µM
GI50 [4]: > 100 µM
maximum effective concentration [5]: 10^−4 mol · l^−1
activity (%) [10^−4 mol · l^−1 BAP = 100%] [5]: 114 ± 3%

OC[C@H]1OC(n2cnc3c(NCc4ccco4)ncnc32)[C@H](O)[C@@H]1O (some centres unmarked) [6-furfurylamino-9-ribosylpurine, reference compound]
IC50 [6]: ≤ 3 µM

c1ccc(CNc2ncnc3nc[nH]c23)cc1 [BAP, 6-benzylaminopurine, reference compound]
maximum effective concentration [5]: 10^−4 mol · l^−1
activity (%) [10^−4 mol · l^−1 BAP = 100%] [5]: 100 ± 1%

Cc1ccsc1CNc1ncnc2c1ncn2C1CCCO1 (centres unmarked) [Compound 10, 6-(3-methylthiophen-2-ylmethylamino)-9-(tetrahydrofuran-2-yl)purine]
maximum effective concentration [5]: 10^−4 mol · l^−1
activity (%) [10^−4 mol · l^−1 BAP = 100%] [5]: 110 ± 7%

O=C(/C=C/c1ccc(O)c(O)c1)O[C@H](Cc1ccc(O)c(O)c1)C(=O)O [RA, rosmarinic acid, reference compound]
Protection (%) ([7]; Table 17: UVA-induced damage (10 J/cm2), 3.9 μmol/l): 23.6%
Protection (%) ([7]; Table 17: UVA-induced damage (10 J/cm2), 7.8 μmol/l): 42.3%
Protection (%) ([7]; Table 17: UVA-induced damage (10 J/cm2), 15.6 μmol/l): 36.2%
Protection (%) ([7]; Table 17: UVA-induced damage (10 J/cm2), 31.3 μmol/l): 44.0%
Protection (%) ([7]; Table 18: titled UVA-induced damage, 3.9 μmol/l): 22%
Protection (%) ([7]; Table 18: titled UVA-induced damage, 7.8 μmol/l): 48.5%
Protection (%) ([7]; Table 18: titled UVA-induced damage, 15.6 μmol/l): 55.7%
Protection (%) ([7]; Table 18: titled UVA-induced damage, 31.3 μmol/l): 54.3%
Protection (%) ([8]; UVA 7.5 J/cm^2, 3.9 μmol/l): 6.1%
Protection (%) ([8]; UVA 7.5 J/cm^2, 7.8 μmol/l): 14.7%
Protection (%) ([8]; UVA 7.5 J/cm^2, 15.6 μmol/l): 17.0%
Protection (%) ([8]; UVA 7.5 J/cm^2, 31.3 μmol/l): 19.3%
Protection (%) ([8]; UVB 150 mJ/cm^2, 3.9 μmol/l): 36.8%
Protection (%) ([8]; UVB 150 mJ/cm^2, 7.8 μmol/l): 50.9%
Protection (%) ([8]; UVB 150 mJ/cm^2, 15.6 μmol/l): 52.9%
Protection (%) ([8]; UVB 150 mJ/cm^2, 31.3 μmol/l): 67.7%

c1coc(CNc2ncnc3nc[nH]c23)c1 [kinetin, 6-furfurylaminopurine, reference compound]
maximum effective concentration [5]: 10^−4 mol · l^−1
activity (%) [10^−4 mol · l^−1 BAP = 100%] [5]: 98 ± 4%
